Measured values from US11572384B2, “Unusual substrates of tubulin tyrosine ligase” (FORSCHUNGSVERBUND BERLIN E.V., priority 2016, dated 2023).

Target: T1, TTL (Canis lupus familiaris, UniProt A0A8I3N5B1)
T1 construct: His-Tag (N, cleaved yes); Sumo (N, cleaved yes); made in house; host or cells: E. coli BL21 (DE3)
T1 sequence (A0A8I3N5B1 1-377): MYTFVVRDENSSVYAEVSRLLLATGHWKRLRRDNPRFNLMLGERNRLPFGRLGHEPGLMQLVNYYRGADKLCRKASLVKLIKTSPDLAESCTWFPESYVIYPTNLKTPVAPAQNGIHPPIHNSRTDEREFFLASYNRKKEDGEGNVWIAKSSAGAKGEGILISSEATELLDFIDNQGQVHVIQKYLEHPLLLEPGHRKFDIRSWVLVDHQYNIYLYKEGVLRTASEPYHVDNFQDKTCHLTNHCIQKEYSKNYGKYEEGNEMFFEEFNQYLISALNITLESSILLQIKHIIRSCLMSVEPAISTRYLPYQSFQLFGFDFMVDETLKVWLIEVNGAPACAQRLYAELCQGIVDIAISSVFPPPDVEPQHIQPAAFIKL
Assay: TTL mediated labelling of Tub-tagged proteins with coumarin derivative 7 (SDS-PAGE, in-gel fluorescence)
Assay type: biochemical
Settings: 1 μM TTL, 37°, 1-6 h
Method: TTL (Canis lupus) having NCBI Accession number XP_540180.2 was expressed in E. coli (BL21 DE3) as Sumo-TTL fusion protein with an N-terminal His-Tag. Cells were induced with 0.5 mM IPTG and incubated at 18° C. for 18 h. Lysis was performed in presence of Lysozyme (100 μg/ml), DNAse (25 μg/ml) and PMSF (2 mM) followed by sonification (Branson® Sonifier; 16×8sec, 20% Amplitude) and debris centrifugation at 20.000 g for 30 min. His-Sumo-TTL was purified using a 5 ml His-Trap. For removal of the Sumo-Tag, peak fractions were incubated with SenP2 protease at 4° C. overnight. A second His-Trap run then removed the Sumo fraction. Purified protein was then desalted on a PD10 column (GE Healthcare); buffer was exchanged to MES/K pH 6.8 (20 mM MES, 100 mM KCl, 10 mM MgCl2). Protein aliquots were shock-frozen and stored at −80° C. at 0.8 g/l. Functionalization reactions were performed in a 150 μL solution consisting of 20 mM MES/K pH 7.0, 100 mM KCl, 10 mM MgCl2, 2.5 mM ATP, 1 mM (7), 1 μM TTL, 5 μM ubiquitin and 5 mM DTT. The mixture was incubated at 37° for 1-6 h. Proteins were separated and analysed by SDS-PAGE and a ChemiDoc™ XRS+gel imaging system (Bio-Rad, Hercules, Calif., US). Functionalization reactions were performed in a 150 μL solution consisting of 20 mM MES/K pH 7.0, 100 mM KCl, 10 mM MgCl2, 2.5 mM ATP, 1 mM (7), 1 μM TTL, 5 μM nanobody and 5 mM DTT. The mixture was incubated at 37° for 1-6 h. Proteins were separated and analysed by SDS-PAGE and a ChemiDoc™ XRS+gel imaging system (Bio-Rad, Hercules, Calif., US). Functionalization reactions were performed in a 150 μL solution consisting of 20 mM MES/K pH 7.0, 100 mM KCl, 10 mM MgCl2, 2.5 mM ATP, 1 mM (24), 1 μM TTL, 5 μM nanobody and 5 mM DTT. The mixture was incubated at 37° for 1-6 h. Proteins were separated and analysed by SDS-PAGE and a ChemiDoc™ XRS+gel imaging system (Bio-Rad, Hercules, Calif., US).

N[C@@H](Cc1cc(=O)oc2cc(O)ccc12)C(=O)O.O=C(O)C(F)(F)F [compound 7, (1S)-1-Carboxy-2-(7-hydroxy-2-oxo-2H-chromen-4-yl)ethyl ammonium trifluoroacetate]
successfully functionalized: TTL mediated functionalization of Tub-tagged Annexin V (SDS-PAGE and in-gel fluorescence (FIG. 10)) | TTL mediated functionalization of Tub-tagged GBP nanobody (1 mM (7), 5 μM nanobody, SDS-PAGE and in-gel fluorescence (FIG. 9)) | TTL mediated functionalization of Tub-tagged ubiquitin (1 mM (7), 5 μM ubiquitin, SDS-PAGE and in-gel fluorescence (FIG. 8))
